Our source for the IC50 values is patent publication US8420657B2 (Novartis AG, priority 2008, dated 2013).

Test [1] addresses T1, GST-JAK2(808-1132) (Homo sapiens, UniProt O60674).
T1 construct: GST-JAK2(808-1132); purchased Invitrogen (Carlsbad, USA) #4288
Briefly: JAK2 kinase assay (Caliper mobility shift, LabChip 3000). It is filed as biochemical. The method in brief: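 Recombinant GST-JAK2(808-1132) kinase domain with FITC-labelled JAK3tide peptide substrate and ATP; 60 min at 30 °C, EDTA stop. Substrate/product ratio read by microfluidic mobility shift; compounds at 8 final concentrations, 10 to 0.003 μM.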

Test [2] concerns JAK1/JAK2-dependent nuclear translocation of STAT1-GFP in HT1080 fibrosarcoma cells. Briefly: STAT1 nuclear translocation assay (Cellomics), IFN-γ stimulated HT1080 STAT1-GFP cells. It counts as cell-based. As to conditions: Homo sapiens, HT-1080, STAT1 translocation pathway. The text has this:
The medium-throughput (96-well format) cellular automated fluorescence microscopy Cellomics assay can be routinely used to assess the functional activation of Janus Kinases (JAKs), based on the nuclear translocation of their substrate, Signal Transducer and Activator of Transcription (STAT). Nuclear translocation can be monitored either in HT1080 fibrosarcoma cells stably transfected with STAT1 fused to Green Fluorescence Protein (GFP) or in U-2 OS osteosarcoma cells stably transfected with STAT5 fused to Green Fluorescence Protein (GFP). Stimulation of HT1080 cells with interferon-γ (IFN-γ) results in JAK1/JAK2-dependent nuclear translocation of STAT1-GFP, whereas stimulation of U-2 OS cells with recombinant human erythropoietin (rhEpo) results in JAK2-dependent nuclear translocation of STAT5-GFP, both of which can be quantified using the Cellomics Cyto/NucTrans software package. This assay may be used to provide an assessment of the nuclear-cytoplasmic differential (NCD) of STAT-GFP using Hoechst dye to define the boundaries of the nucleus.
HT1080 fibrosarcoma cells may be obtained from ATCC and can be cultured in alpha Modified Eagle Medium with 10% FCS. Cells can be transfected with pEGFP-N2 STAT1 using Fugene 6 Transfection Reagent following the manufacturers' protocol. 24 hours after transfection the medium can be replaced and selected in 1 mg/ml Geneticin.
Compounds can be dissolved in DMSO to a final stock concentration of 10 mM and stored as aliquots at 4° C. Compounds may be pre-diluted in 100% DMSO at 10 mM, 3 mM 1 mM, 0.3 mM, 0.1 mM, 0.03 mM, 0.01 mM and 0.003 mM. Subsequently, compounds may be diluted in medium and added in 50 μl to the cells. The final compound concentrations tested may be 10 μM, 3 μM 1 μM, 0.3 μM, 0.1 μM, 0.03 μM, 0.01 μM and 0.003 μM and the final DMSO concentration can be 0.1%.
HT1080 STAT1-GFP cells may be seeded at a density of 10,000 cells per well in clear-bottom black 96-well Packard View-Plates™. 16-24 hours later, the cells can be treated for 2 hours with 100 ng/ml IFN-γ, washed twice in pre-warmed PBS and fixed in 200 μl of pre-warmed fixation solution (PBS, 3.7% Formaldehyde) for 10 minutes. The plates may be washed twice in 200 μl PBS and incubated, protected from light, in 100 μl of DNA-staining solution (PBS, 0.5 μg/ml Hoechst-33342) for 1 minute. The plates may then be washed once in PBS, and 200 μl PBS finally added per well. The plates, being finally covered with a black adhesive, may be either read directly or stored at 4° C. for later imaging. Where appropriate, the compounds may be added 30 min before stimulation with IFN-γ.
The plates can be read on a Cellomics® ArrayscanII automated fluorescence microscope plate reader equipped with a Mercury-Xenon white light illumination source and a Zeiss Axiovert inverted microscope, using the XF100 dichroic/emission filter cube and matching excitation filters, 10× magnification, and a 0.3 numerical aperture objective. Image acquisition and analysis can be performed using a customized protocol based on the ‘NuclearTranslocation’ Bioapplication. For each well, multiple images (fields) can be acquired until a minimum of 1000 cells are counted using two 2 channels: Channel 1 (Hoechst)=focus+nuclear mask, Channel 2 (GFP)=signal quantification in mask areas as outlined below. Nuclei may be first identified based on the Hoechst staining and a mask generated for each nucleus that then serves as a template to generate a circle (eroded inwards by 1 pixel) and a 3 pixel-wide collar-like ring (off-set outwards by 1 pixel), in which the nuclear and cytoplasmic intensity of GFP, respectively, are quantified in the corresponding channel. High content analysis yields numerous measurements per cell and the GFP intensity differential between the nuclear and the cytoplasmic masks may be chosen as a measure of sub-cellular STAT-GFP relocation. The resulting values may be averaged for all cells in the well to return a single measurement plus standard deviation. […]

T1 sequence (O60674 808-1132): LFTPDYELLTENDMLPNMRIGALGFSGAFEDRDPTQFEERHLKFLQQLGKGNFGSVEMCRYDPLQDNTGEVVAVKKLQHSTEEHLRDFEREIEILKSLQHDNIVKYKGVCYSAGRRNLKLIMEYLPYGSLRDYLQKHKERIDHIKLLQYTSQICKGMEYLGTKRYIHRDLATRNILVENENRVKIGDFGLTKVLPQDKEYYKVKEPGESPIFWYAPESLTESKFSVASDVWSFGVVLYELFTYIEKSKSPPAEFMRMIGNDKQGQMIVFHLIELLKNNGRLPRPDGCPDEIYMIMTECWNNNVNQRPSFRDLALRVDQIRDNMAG

As usually defined, the IC50 is the concentration at which inhibition is half-maximal. On to `CS(=O)(=O)c1ccc(-n2ccc3cnc(Nc4ccc(Cn5ccnc5)cc4)nc32)cc1` [Example 43, (4-Imidazol-1-ylmethyl-phenyl)-[7-(4-methanesulfonyl-phenyl)-7H-pyrrolo[2,3-d]pyrimidin-2-yl]-amine], for which the figures for the IC50 in test [1] and in test [2] were below 3 nM and 350 nM, respectively.

As for `CS(=O)(=O)c1ccc(-n2ccc3cnc(Nc4ccc(CN5CCOCC5)cc4)nc32)cc1` [Example 44, [7-(4-Methanesulfonyl-phenyl)-7H-pyrrolo[2,3-d]pyrimidin-2-yl]-(4-morpholin-4-ylmethyl-phenyl)-amine], the IC50 was below 3 nM in test [1] and 142 nM in test [2].

Take `CS(=O)(=O)c1ccc(-n2ccc3cnc(Nc4cccc(Cn5ccnc5)c4)nc32)cc1` [Example 47, (3-Imidazol-1-ylmethyl-phenyl)-[7-(4-methanesulfonyl-phenyl)-7H-pyrrolo[2,3-d]pyrimidin-2-yl]-amine]: the IC50 is below 3 nM in test [1] and 73 nM in test [2].

`CN(C)CCN(C(=O)c1cccc(Nc2ncc3ccn(-c4ccc(S(C)(=O)=O)cc4)c3n2)c1)c1ccccc1` [Example 48, N-(2-Dimethylamino-ethyl)-3-[7-(4-methanesulfonyl-phenyl)-7H-pyrrolo[2,3-d]pyrimidin-2-ylamino]-N-phenyl-benzamide]: the figures for the IC50 in test [1] and in test [2] were 27 nM and 4210 nM, respectively.

On to `CS(=O)(=O)c1ccc(-n2ccc3cnc(Nc4cccc(C(=O)N5CCOCC5)c4)nc32)cc1` [Example 49, {3-[7-(4-Methanesulfonyl-phenyl)-7H-pyrrolo[2,3-d]pyrimidin-2-ylamino]-phenyl}-morpholin-4-yl-methanone], for which the IC50 is 14 nM in test [1] and 878 nM in test [2].

Take `CN(C)CCNC(=O)c1cccc(Nc2ncc3ccn(-c4ccc(S(C)(=O)=O)cc4)c3n2)c1` [Example 50, N-(2-Dimethylamino-ethyl)-3-[7-(4-methanesulfonyl-phenyl)-7H-pyrrolo[2,3-d]pyrimidin-2-ylamino]-benzamide]: the IC50 is below 3 nM in test [1] and 184 nM in test [2].

For `CS(=O)(=O)c1ccc(-n2ccc3cnc(Nc4ccc(C5CCCN5)cc4)nc32)cc1` (stereo not drawn) [Example 53, [7-(4-Methanesulfonyl-phenyl)-7H-pyrrolo[2,3-d]pyrimidin-2-yl]-(4-pyrrolidin-2-yl-phenyl)-amine], the values for the IC50 in test [1] and in test [2] were below 3 nM and 90.5 nM, respectively.

As for `COCc1ccc(Nc2ncc3ccn(-c4ccc(S(C)(=O)=O)cc4)c3n2)cc1` [Example 54, [7-(4-Methanesulfonyl-phenyl)-7H-pyrrolo[2,3-d]pyrimidin-2-yl]-(4-methoxymethyl-phenyl)-amine], the IC50 amounted to 4.4 nM in test [1] and 3110 nM in test [2].

Turning to `CN1CCN(C(=O)c2ccc(-n3ccc4cnc(Nc5ccc(F)cc5)nc43)cc2)CC1` [Example 56, {4-[2-(4-Fluoro-phenylamino)-pyrrolo[2,3-d]pyrimidin-7-yl]-phenyl}-(4-methyl-piperazin-1-yl)-methanone], the values for the IC50 in test [1] and in test [2] were 32 nM and 4680 nM, respectively.

In the case of `O=C(c1ccc(-n2ccc3cnc(Nc4ccc(F)cc4)nc32)cc1)N1CCCC1` [Example 57, {4-[2-(4-Fluoro-phenylamino)-pyrrolo[2,3-d]pyrimidin-7-yl]-phenyl}-pyrrolidin-1-yl-methanone], the results for the IC50 in test [1] and in test [2] were below 3 nM and 772 nM, respectively.

Turning to `CN1CCN(C(=O)c2ccc(-n3ccc4cnc(Nc5ccc(F)cc5)nc43)cc2F)CC1` [Example 58, {2-Fluoro-4-[2-(4-fluoro-phenylamino)-pyrrolo[2,3-d]pyrimidin-7-yl]-phenyl}-(4-methyl-piperazin-1-yl)-methanone], the IC50 in test [1] was 12 nM; in test [2], 5300 nM.

In the case of `O=C(c1ccc(-n2ccc3cnc(Nc4ccc(F)cc4)nc32)cc1F)N1CCOCC1` [Example 59, {2-Fluoro-4-[2-(4-fluoro-phenylamino)-pyrrolo[2,3-d]pyrimidin-7-yl]-phenyl}-morpholin-4-yl-methanone], the values for the IC50 in test [1] and in test [2] were 6.5 nM and 920 nM, respectively.

`CC(=O)c1ccc(-n2ccc3cnc(Nc4ccc(F)cc4)nc32)cc1` [Example 60, 1-{4-[2-(4-Fluoro-phenylamino)-pyrrolo[2,3-d]pyrimidin-7-yl]-phenyl}-ethanone]: the figures for the IC50 in test [1] and in test [2] were 8.1 nM and 4080 nM, respectively.

As to `O=C(c1ccc(-n2ccc3cnc(Nc4ccc(F)cc4)nc32)cc1)N1CCOCC1` [Example 61, {4-[2-(4-Fluoro-phenylamino)-pyrrolo[2,3-d]pyrimidin-7-yl]-phenyl}-morpholin-4-yl-methanone], the IC50 in test [1] was 7.1 nM; in test [2], 835 nM.

With `O=C(NCCN1CCOCC1)c1ccc(-n2ccc3cnc(Nc4ccc(F)cc4)nc32)cc1` [Example 62, 4-[2-(4-Fluoro-phenylamino)-pyrrolo[2,3-d]pyrimidin-7-yl]-N-(2-morpholin-4-yl-ethyl)-benzamide], the figures for the IC50 in test [1] and in test [2] were 180 nM and 5390 nM, respectively.

In the case of `CS(=O)(=O)c1ccc(-n2ccc3cnc(Nc4ccc(CN5CCS(=O)(=O)CC5)cc4)nc32)cc1` [Example 64, [4-(1,1-Dioxido-thiomorpholin-4-ylmethyl)-phenyl]-[7-(4-methanesulfonyl-phenyl)-7H-pyrrolo[2,3-d]pyrimidin-2-yl]-amine], the IC50 was below 3 nM in test [1] and 40 nM in test [2].

Consider `CN(C)CCN(C)C(=O)c1ccc(Nc2ncc3ccn(-c4ccc(S(C)(=O)=O)cc4)c3n2)cc1` [Example 65, N-(2-Dimethylamino-ethyl)-4-[7-(4-methanesulfonyl-phenyl)-7H-pyrrolo[2,3-d]pyrimidin-2-ylamino]-N-methyl-benzamide], for which the IC50 in test [1] came out at 5.4 nM; in test [2], 99.5 nM.

Consider `CN(C)C1CCN(C(=O)c2ccc(Nc3ncc4ccn(-c5ccc(S(C)(=O)=O)cc5)c4n3)cc2)CC1` [Example 66, (4-Dimethylamino-piperidin-1-yl)-{4-[7-(4-methanesulfonyl-phenyl)-7H-pyrrolo[2,3-d]pyrimidin-2-ylamino]-phenyl}-methanone], for which the IC50 in test [1] came to 3.5 nM; in test [2], 75.5 nM.

For `CS(=O)(=O)c1ccc(-n2ccc3cnc(Nc4ccc(C(=O)NCCN5CCOCC5)cc4)nc32)cc1` [Example 67, 4-[7-(4-Methanesulfonyl-phenyl)-7H-pyrrolo[2,3-d]pyrimidin-2-ylamino]-N-(2-morpholin-4-yl-ethyl)-benzamide], the IC50 in test [1] was below 3 nM; in test [2] it was 39 nM.

Turning to `CCN1CCCC1CNC(=O)c1ccc(Nc2ncc3ccn(-c4ccc(S(C)(=O)=O)cc4)c3n2)cc1` (stereo not drawn) [Example 68, N-(1-Ethyl-pyrrolidin-2-ylmethyl)-4-[7-(4-methanesulfonyl-phenyl)-7H-pyrrolo[2,3-d]pyrimidin-2-ylamino]-benzamide], the IC50 was below 3 nM in test [1] and 105 nM in test [2].

For the molecule `CN1CCN(C(=O)Cc2cccc(Nc3ncc4ccn(-c5ccc(S(C)(=O)=O)cc5)c4n3)c2)CC1` [Example 70, 2-{3-[7-(4-Methanesulfonyl-phenyl)-7H-pyrrolo[2,3-d]pyrimidin-2-ylamino]-phenyl}-1-(4-methyl-piperazin-1-yl)-ethanone], the IC50 in test [1] worked out at 5.6 nM; in test [2], 275 nM.
